Some test systems named below: HCC 2998; M14; U-251; SN12C; NCI/ADR-RES; BT-549; TK-10; SK-MEL-5; SNB-75; OVCAR-5; UACC-62; KM12; SNB-19; SF-295; 786-0; NCI-H23; ACHN; SK-MEL-2; CCRF-CEM; MDA-N.
What all share (test): NCI anticancer screen, dose series, 48 h

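Growth conditions: 96-well plates. Treatment: test compound, 48 hours, 5 concentrations. Analysis: linear interpolation between bracketing concentrations; unreached endpoints set to highest concentration. GI50 = concentration required for 50% inhibition of growth.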 The source made the active and inactive calls. Rule as the data show it: active = GI50 up to about 1.1 µM and inactive = higher.

These results are taken from ChEMBL document CHEMBL1201862, “PubChem BioAssay data set” (2004).

For `CC12CCC(Br)C(C)(C)C1CC=C1C(=O)OCC1O2` (stereo not drawn), the GI50 with HCC 2998 was 12.1 µM (inactive); in the test with M14 it was 20.5 µM (inactive); in the test with U-251 it was 9.77 µM (inactive); in the test on SN12C it was 18.5 µM (inactive); in the test on NCI/ADR-RES, 20.4 µM (inactive); in the test on BT-549 it was 14.9 µM (inactive). Also, the GI50 is 14 µM (inactive) with TK-10; 15.1 µM (inactive) with SK-MEL-5; 15.5 µM (inactive) in the test with SNB-75; 18.7 µM (inactive) in the test with OVCAR-5; 8.59 µM (inactive) in the test on UACC-62; 14.2 µM (inactive) with KM12. Moreover, the GI50 in the test with SNB-19 is 18.2 µM (inactive); with SF-295, 15.8 µM (inactive); in the test on 786-0, 19.4 µM (inactive); in the test on NCI-H23, 11.8 µM (inactive); in the test on ACHN it was 12.5 µM (inactive); with SK-MEL-2 it was 13.6 µM (inactive).
As for `CC1=NOC(C)(O)/C1=N/O` (stereo not drawn), the GI50 in the test on CCRF-CEM, with HCC 2998, in the test on M14, with U-251, in the test on SN12C and with NCI/ADR-RES was > 100 µM (inactive) throughout. Moreover, the GI50 with BT-549, in the test with TK-10, with SK-MEL-5, with SNB-75, in the test with OVCAR-5 and in the test on UACC-62 was > 100 µM (inactive) throughout. The GI50 with KM12, in the test with SNB-19, with SF-295, in the test on 786-0, in the test with NCI-H23 and in the test on ACHN was > 100 µM (inactive) throughout. Moreover, the GI50 with SK-MEL-2 is > 100 µM (inactive).
For `CCOC(=O)C1CC(O)C(=O)N1C` (stereo not drawn), the GI50 in the test with CCRF-CEM, with HCC 2998, in the test on M14, in the test on U-251, with SN12C and in the test with BT-549 was > 100 µM (inactive) throughout. The GI50 with TK-10, with SK-MEL-5, in the test on OVCAR-5, in the test on UACC-62, in the test with MDA-N and in the test with SNB-19 was > 100 µM (inactive) in each case. Further, the GI50 in the test on SF-295, in the test with 786-0, in the test with NCI-H23, with ACHN and with SK-MEL-2 was > 100 µM (inactive) throughout.
Regarding `O=c1[nH]c2ccccc2c(=O)n1/N=C\c1ccccc1O`, the GI50 with CCRF-CEM, with M14, with U-251, in the test with SN12C, in the test on BT-549 and in the test with TK-10 was > 100 µM (inactive) each time. For the same compound, the GI50 with SK-MEL-5 was 88.3 µM (inactive); in the test with SNB-75, 36.4 µM (inactive); in the test on OVCAR-5, > 100 µM (inactive); in the test on UACC-62 it was > 100 µM (inactive); with MDA-N, > 100 µM (inactive); in the test on KM12 it was 30.5 µM (inactive). The GI50 with SNB-19, with SF-295, with 786-0, in the test on NCI-H23, in the test on ACHN and in the test with SK-MEL-2 was > 100 µM (inactive) in each case.
For `CCOC(=O)C(NC(=O)c1ccccc1)(Nc1ccc(S(=O)(=O)Nc2cc(C)nc(C)n2)cc1)C(F)(F)F` (stereo not drawn), the GI50 in the test on CCRF-CEM, with M14, with U-251, in the test with SN12C, in the test on NCI/ADR-RES and with TK-10 was > 100 µM (inactive) throughout. Moreover, the GI50 with SK-MEL-5, in the test with SNB-75, with OVCAR-5, with UACC-62, with MDA-N and in the test on KM12 was > 100 µM (inactive) in each case. In addition, the GI50 with SNB-19, in the test with SF-295, in the test with 786-0, in the test with NCI-H23, in the test on ACHN and in the test with SK-MEL-2 was > 100 µM (inactive) in each case.
As to `O=NN(CCCl)C(=O)NC1CCC(CC2CCC(NC(=O)N(CCCl)N=O)CC2)CC1` (stereo not drawn), the GI50 in the test with CCRF-CEM is 1.05 µM (active); with HCC 2998, > 100 µM (inactive); in the test with M14, 96.8 µM (inactive); in the test on U-251, 1.24 µM (inactive); in the test on SN12C, 28.4 µM (inactive); in the test with NCI/ADR-RES, 24.3 µM (inactive). Moreover, the GI50 in the test with TK-10 was 32.5 µM (inactive); in the test with SK-MEL-5, 32 µM (inactive); in the test with SNB-75, 16.6 µM (inactive); with OVCAR-5 it was > 100 µM (inactive); in the test on KM12, > 73.3 µM (inactive); with SNB-19, 12.2 µM (inactive). In addition, the GI50 in the test on SF-295 is 0.986 µM (active); in the test on 786-0, 13.2 µM (inactive); with NCI-H23, 34.1 µM (inactive); with ACHN it was 38.1 µM (inactive); with SK-MEL-2, 39.1 µM (inactive).
Regarding `C=CCNc1ccc(C)cc1`, the GI50 in the test on CCRF-CEM, with HCC 2998, in the test with M14, with U-251, in the test on SN12C and in the test on NCI/ADR-RES was > 100 µM (inactive) in each case. The GI50 in the test on TK-10, in the test on SK-MEL-5, in the test on SNB-75, in the test on MDA-N, with KM12 and in the test with SNB-19 was > 100 µM (inactive) each time. Further, the GI50 with SF-295, with NCI-H23 and in the test with ACHN was > 100 µM (inactive) in each case.
`CCOC(=O)C1(C(=O)OCC)COS(=O)OC1`: the GI50 is 10.6 µM (inactive) in the test on CCRF-CEM; 47.6 µM (inactive) in the test on HCC 2998; > 100 µM (inactive) in the test with M14; > 100 µM (inactive) in the test on U-251; > 100 µM (inactive) in the test on SN12C; 40 µM (inactive) in the test on NCI/ADR-RES. The GI50 in the test with TK-10 is > 100 µM (inactive); with SK-MEL-5 it was 35.6 µM (inactive); in the test with SNB-75, 79.1 µM (inactive); in the test on MDA-N it was 35.5 µM (inactive); in the test on KM12, 28.7 µM (inactive); in the test on SNB-19, > 100 µM (inactive). Also, the GI50 was > 100 µM (inactive) with SF-295, 49.7 µM (inactive) with NCI-H23 and 32.6 µM (inactive) in the test with ACHN.
For the compound `O=C1CCCn2c3ccccc3c3ccnc1c32`, the GI50 was 27.8 µM (inactive) in the test on CCRF-CEM; 41.4 µM (inactive) in the test with HCC 2998; 40.8 µM (inactive) in the test on U-251; 40.8 µM (inactive) in the test with SN12C; 36.6 µM (inactive) with NCI/ADR-RES; 34 µM (inactive) in the test on SK-MEL-5. The GI50 with SNB-75 is 34.3 µM (inactive); in the test on OVCAR-5 it was 35.2 µM (inactive); in the test with UACC-62, 29.2 µM (inactive); in the test on KM12 it was 62.1 µM (inactive); in the test on SNB-19, 47.3 µM (inactive); in the test with SF-295 it was 38.9 µM (inactive). Also, the GI50 in the test with NCI-H23 was 50 µM (inactive); with SK-MEL-2, 47.1 µM (inactive).
Regarding `OC1CCCC1C(O)(C(F)(F)F)C(F)(F)F` (stereo not drawn), the GI50 in the test on CCRF-CEM, in the test with HCC 2998, in the test with M14, with U-251, in the test with SN12C and in the test with NCI/ADR-RES was > 100 µM (inactive) each time. For the same compound, the GI50 in the test with TK-10, in the test on SK-MEL-5, with SNB-75, with OVCAR-5, in the test with UACC-62 and with MDA-N was > 100 µM (inactive) in each case. In addition, the GI50 in the test on KM12, with SNB-19, in the test on SF-295, in the test with 786-0, in the test with NCI-H23 and in the test with ACHN was > 100 µM (inactive) throughout. Moreover, the GI50 in the test on SK-MEL-2 was > 100 µM (inactive).
Consider `CCCCCCCCCCCCCCCCC1=CC(=O)C=C(OC)C1=O`, for which the GI50 is 29.4 µM (inactive) with CCRF-CEM; > 100 µM (inactive) in the test on HCC 2998; > 100 µM (inactive) in the test on M14; 32.5 µM (inactive) with U-251; 44 µM (inactive) in the test with SN12C; 95.5 µM (inactive) with NCI/ADR-RES. Moreover, the GI50 in the test with TK-10 was > 100 µM (inactive); in the test with SK-MEL-5 it was > 100 µM (inactive); with SNB-75, > 100 µM (inactive); with OVCAR-5, > 100 µM (inactive); in the test on UACC-62, 34.7 µM (inactive); in the test with MDA-N, > 100 µM (inactive). For the same compound, the GI50 in the test with KM12 is 69.2 µM (inactive); in the test with SNB-19, 56.4 µM (inactive); in the test on SF-295, > 100 µM (inactive); in the test with 786-0, 47.2 µM (inactive); with NCI-H23 it was 62.2 µM (inactive); with ACHN, > 100 µM (inactive). The GI50 with SK-MEL-2 was > 100 µM (inactive).
With `COc1ccc(C2=NNC(c3cc4cc(Br)ccc4nc3Cl)C2)cc1` (stereo not drawn), the GI50 with CCRF-CEM was 0.13 µM (active); in the test on HCC 2998, 11.5 µM (inactive); in the test on M14, 11.5 µM (inactive); in the test with SN12C, 7.66 µM (inactive); with BT-549, 14.5 µM (inactive); in the test on SNB-75, 0.0631 µM (active). For the same compound, the GI50 with OVCAR-5 is > 25 µM (inactive); with UACC-62, 22.6 µM (inactive); with MDA-N it was 6.31 µM (inactive); in the test with KM12 it was 22.9 µM (inactive); in the test with 786-0 it was 15.9 µM (inactive); in the test on NCI-H23 it was 15.4 µM (inactive). For the same compound, the GI50 in the test with ACHN is 13.2 µM (inactive); in the test on SK-MEL-2, 11.8 µM (inactive).
